Assay results published in publication PMC3745005 (Journal of biomolecular screening, 2012).

Biological target: PDE4A (catalytic domain of PDE4A10) (Homo sapiens, UniProt P27815)
Assay: enthalpy array nanocalorimetry, cAMP hydrolysis
Assay type: biochemical

Chain of PDE4A (catalytic domain of PDE4A10) (P27815 351-683): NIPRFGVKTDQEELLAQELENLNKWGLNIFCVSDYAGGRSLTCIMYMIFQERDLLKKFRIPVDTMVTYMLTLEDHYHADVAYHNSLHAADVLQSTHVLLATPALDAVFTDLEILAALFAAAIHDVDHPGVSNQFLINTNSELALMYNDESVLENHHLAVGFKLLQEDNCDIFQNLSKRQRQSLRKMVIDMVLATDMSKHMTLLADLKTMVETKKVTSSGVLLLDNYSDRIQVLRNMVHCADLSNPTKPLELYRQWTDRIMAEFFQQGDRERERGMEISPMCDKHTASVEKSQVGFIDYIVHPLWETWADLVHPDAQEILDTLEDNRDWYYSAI

## CC(C)Cn1c(=O)n(C)c(=O)c2[nH]cnc21 [IBMX]
  Ki: 8.3 ± 1.5 µM
